Experimental data as given in patent US20180000085A1, “USE OF PICOLINAMIDE COMPOUNDS WITH FUNGICIDAL ACTIVITY” (DOW AGROSCIENCES LLC, priority 2014, published 2018).

Columns and labels:
[1] = test system: Zymoseptoria tritici; assay: Leaf blotch of wheat (SEPTTR) disease control on wheat seedlings; type: in vivo; design: key to SEPTTR 1DP, HV activity at 100 ppm (% control rating) / SEPTTR 3DC, HV activity at 100 ppm (% control rating) / SEPTTR disease control, 1DP / SEPTTR disease control, 3DC / SEPTTR 1DP disease control rating, HV activity / SEPTTR 3DC disease control rating, HV activity / SEPTTR 3DC, LV activity at 125.1 g/H (% Control rating) / SEPTTR 1DP, LV activity at 125.1 g/H (% Control rating) / SEPTTR 1DP disease control rating, LV activity at 125.1 g/H / SEPTTR 3DC disease control rating, LV activity at 125.1 g/H / SEPTTR 3DC disease control rating, HV activity at 100 ppm / SEPTTR 1DP disease control rating, HV activity at 100 ppm / HV activity at 100 ppm SEPTTR 3DC (disease control rating) / HV activity at 100 ppm SEPTTR 1DP (disease control rating) / LV activity at 125.1 g/H SEPTTR 1DP (disease control rating) / LV activity at 125.1 g/H SEPTTR 3DC (disease control rating): A: > 80; B: ≤ 80; C: Not Tested; D: No Activity Observed in the Reported Assay; settings: for SEPTTR 1DP disease control rating, HV activity at 100 ppm / SEPTTR 3DC disease control rating, HV activity at 100 ppm: high volume application; for SEPTTR 1DP disease control rating, HV activity / SEPTTR 3DC disease control rating, HV activity: HV application at 100 ppm; for SEPTTR 1DP disease control rating, HV activity / SEPTTR 1DP, LV activity at 125.1 g/H (% Control rating) / LV activity at 125.1 g/H SEPTTR 1DP (disease control rating): 1 Day Protectant; for SEPTTR 1DP disease control rating, HV activity / SEPTTR 3DC disease control rating, HV activity / LV activity at 125.1 g/H SEPTTR 1DP (disease control rating) / LV activity at 125.1 g/H SEPTTR 3DC (disease control rating): wheat leaf blotch; for SEPTTR 3DC disease control rating, HV activity / SEPTTR 3DC, LV activity at 125.1 g/H (% Control rating) / LV activity at 125.1 g/H SEPTTR 3DC (disease control rating): 3 Day Curative
[2] = test system: Puccinia triticina; assay: Wheat brown rust (PUCCRT) disease control on wheat seedlings; type: in vivo; design: key to PUCCRT 3DC, HV activity at 100 ppm (% control rating) / PUCCRT disease control, 3DC / PUCCRT 1DP disease control rating, HV activity / PUCCRT 3DC disease control rating, HV activity / PUCCRT 3DC, LV activity at 125.1 g/H (% Control rating) / PUCCRT 1DP, LV activity at 125.1 g/H (% Control rating) / PUCCRT 3DC disease control rating, LV activity at 125.1 g/H / PUCCRT 1DP disease control rating, LV activity at 125.1 g/H / PUCCRT 3DC disease control rating, HV activity at 100 ppm / PUCCRT 1DP disease control rating, HV activity at 100 ppm / HV activity at 100 ppm PUCCRT 3DC (disease control rating) / LV activity at 125.1 g/H PUCCRT 1DP (disease control rating) / LV activity at 125.1 g/H PUCCRT 3DC (disease control rating): A: > 80; B: ≤ 80; C: Not Tested; D: No Activity Observed in the Reported Assay; settings: for PUCCRT 1DP disease control rating, HV activity at 100 ppm / PUCCRT 3DC disease control rating, HV activity at 100 ppm: high volume application; for PUCCRT 1DP disease control rating, HV activity / PUCCRT 3DC disease control rating, HV activity: HV application at 100 ppm; for PUCCRT 1DP disease control rating, HV activity / PUCCRT 1DP, LV activity at 125.1 g/H (% Control rating) / LV activity at 125.1 g/H PUCCRT 1DP (disease control rating): 1 Day Protectant; for PUCCRT 1DP disease control rating, HV activity / PUCCRT 3DC disease control rating, HV activity / LV activity at 125.1 g/H PUCCRT 1DP (disease control rating) / LV activity at 125.1 g/H PUCCRT 3DC (disease control rating): wheat brown rust; for PUCCRT 3DC disease control rating, HV activity / PUCCRT 3DC, LV activity at 125.1 g/H (% Control rating) / LV activity at 125.1 g/H PUCCRT 3DC (disease control rating): 3 Day Curative
[3] = low volume application, 125.1 g/H, 1 day protectant
[4] = low volume application, 125.1 g/H, 3 day curative
[5] = low volume application, 125.1 g/H

With `COc1ccnc(C(=O)NC(C)C(=O)OC(C)C(Oc2ccccc2)c2ccc(-c3ccccc3)cc2)c1OCOC(C)=O` (stereo not drawn) [Cmpd 905] the “SEPTTR 1DP disease control rating, LV activity at 125.1 g/H” value [1, 3] was “A (> 80)”, the “SEPTTR 3DC disease control rating, LV activity at 125.1 g/H” value [1, 4] was “A (> 80)” and the “PUCCRT 1DP disease control rating, LV activity at 125.1 g/H” value [2, 3] was “A (> 80)”. The “PUCCRT 3DC disease control rating, LV activity at 125.1 g/H” value [2, 4] was “B (≤ 80)”.

With `COc1ccnc(C(=O)N[C@@H](C)C(=O)O[C@@H](C)[C@H](OCC2CC2)C2CCCCC2)c1O` [Cmpd 816] the “SEPTTR 1DP disease control rating, HV activity at 100 ppm” value ([1]; 1 day protectant) was “B (≤ 80)”, the “SEPTTR 3DC disease control rating, HV activity at 100 ppm” value ([1]; 3 day curative) was “B (≤ 80)” and the “PUCCRT 1DP disease control rating, HV activity at 100 ppm” value ([2]; 1 day protectant) was “A (> 80)”. For the same molecule, the “PUCCRT 3DC disease control rating, HV activity at 100 ppm” value ([2]; 3 day curative) was “B (≤ 80)”.

`CCC(CC)C(Oc1ccc(Cl)cc1Cl)C(C)OC(=O)C(C)NC(=O)c1nccc(OC)c1O` (stereo not drawn) [Cmpd 381] was tested, and the “SEPTTR 1DP disease control rating, HV activity” value [1] was “D”, the “SEPTTR 3DC disease control rating, HV activity” value [1] was “D” and the “PUCCRT 1DP disease control rating, HV activity” value [2] was “D”. For the same molecule, the “PUCCRT 3DC disease control rating, HV activity” value [2] was “D”.

With `CC[C@H](CCC(C)C)[C@@H](OCC1CC1)[C@H](C)OC(=O)[C@H](C)NC(=O)c1nccc(OC)c1OCOC(C)=O` [Cmpd 506] the “SEPTTR 1DP, LV activity at 125.1 g/H (% Control rating)” value (“SEPTTR 1DP … (% Control rating)” for short) [1, 5] was “B (≤ 80)”, the “SEPTTR 3DC, LV activity at 125.1 g/H (% Control rating)” value (“SEPTTR 3DC … (% Control rating)” below) [1, 5] was “B (≤ 80)” and the “PUCCRT 1DP, LV activity at 125.1 g/H (% Control rating)” value (shortened to “PUCCRT 1DP … (% Control rating)”) [2, 5] was “A (> 80)”. The “PUCCRT 3DC, LV activity at 125.1 g/H (% Control rating)” value (“PUCCRT 3DC … (% Control rating)” for short) [2, 5] was “B (≤ 80)”.

In the case of `CCC(CC)[C@@H](Oc1ccc(C(F)(F)F)cc1)[C@H](C)OC(=O)[C@@H](NC(=O)c1nccc(OC)c1O)C(C)C` [Cmpd 412], the “SEPTTR 1DP disease control rating, HV activity” value [1] was “B (≤ 80)”, the “SEPTTR 3DC disease control rating, HV activity” value [1] was “B (≤ 80)” and the “PUCCRT 1DP disease control rating, HV activity” value [2] was “B (≤ 80)”. For the same molecule, the “PUCCRT 3DC disease control rating, HV activity” value [2] was “D”.

`COc1ccnc(C(=O)NCC(=O)O[C@@H](C)[C@H](Oc2ccccc2)C(C)C)c1O` [Cmpd 809] was tested, and the “SEPTTR 1DP disease control rating, HV activity at 100 ppm” value ([1]; 1 day protectant) was “D”, the “SEPTTR 3DC disease control rating, HV activity at 100 ppm” value ([1]; 3 day curative) was “D” and the “PUCCRT 1DP disease control rating, HV activity at 100 ppm” value ([2]; 1 day protectant) was “A (> 80)”. The “PUCCRT 3DC disease control rating, HV activity at 100 ppm” value ([2]; 3 day curative) was “A (> 80)”.

`COc1ccnc(C(=O)NC(C)C(=O)OC(C(C)C)C(Oc2ccccc2)C(C)C)c1OCOC(C)=O` (stereo not drawn) [Cmpd 1088] was tested, and the “LV activity at 125.1 g/H SEPTTR 1DP (disease control rating)” value [1, 5] was “D”, the “LV activity at 125.1 g/H SEPTTR 3DC (disease control rating)” value [1, 5] was “D” and the “LV activity at 125.1 g/H PUCCRT 1DP (disease control rating)” value [2, 5] was “B (≤ 80)”. The “LV activity at 125.1 g/H PUCCRT 3DC (disease control rating)” value [2, 5] was “D”.

`CCC(CC)[C@@H](Oc1cc(F)ccc1F)[C@H](C)OC(=O)[C@@H](NC(=O)c1nccc(OC)c1O)C(C)C` [Cmpd 409] was tested, and the “SEPTTR 1DP disease control rating, HV activity” value [1] was “D”, the “SEPTTR 3DC disease control rating, HV activity” value [1] was “D” and the “PUCCRT 1DP disease control rating, HV activity” value [2] was “B (≤ 80)”. For the same molecule, the “PUCCRT 3DC disease control rating, HV activity” value [2] was “B (≤ 80)”.

For `CCC(CC)[C@@H](Oc1cccc(-c2ccccc2)c1)[C@H](C)OC(=O)[C@H](C)NC(=O)c1nccc(OC)c1OCOC(C)=O` [Cmpd 595], the “SEPTTR 1DP … (% Control rating)” value [1, 5] was “A (> 80)”, the “SEPTTR 3DC … (% Control rating)” value [1, 5] was “A (> 80)” and the “PUCCRT 1DP … (% Control rating)” value [2, 5] was “A (> 80)”. The “PUCCRT 3DC … (% Control rating)” value [2, 5] was “B (≤ 80)”.

For `COc1cc(O[C@H](C2CC2)[C@H](C)OC(=O)[C@H](C)NC(=O)c2nccc(OC)c2O)ccc1Cl` [Cmpd 1000], the “SEPTTR 1DP disease control rating, HV activity at 100 ppm” value ([1]; 1 day protectant) was “B (≤ 80)”, the “SEPTTR 3DC disease control rating, HV activity at 100 ppm” value ([1]; 3 day curative) was “B (≤ 80)” and the “PUCCRT 1DP disease control rating, HV activity at 100 ppm” value ([2]; 1 day protectant) was “A (> 80)”. For the same molecule, the “PUCCRT 3DC disease control rating, HV activity at 100 ppm” value ([2]; 3 day curative) was “A (> 80)”.

With `COc1ccnc(C(=O)N[C@H](C(=O)O[C@@H](C)[C@H](Oc2ccc(C(F)(F)F)cc2)c2ccccc2)C(C)C)c1OC(C)=O` [Cmpd 585] the “SEPTTR 1DP … (% Control rating)” value [1, 5] was “A (> 80)”, the “SEPTTR 3DC … (% Control rating)” value [1, 5] was “D” and the “PUCCRT 1DP … (% Control rating)” value [2, 5] was “A (> 80)”. For the same molecule, the “PUCCRT 3DC … (% Control rating)” value [2, 5] was “B (≤ 80)”.

With `C=CC[C@@H](Oc1ccc(C(F)(F)F)cc1)[C@H](C)OC(=O)[C@H](C)NC(=O)c1nccc(OC)c1OC(C)=O` [Cmpd 1084] the “LV activity at 125.1 g/H SEPTTR 1DP (disease control rating)” value [1, 5] was “B (≤ 80)”, the “LV activity at 125.1 g/H SEPTTR 3DC (disease control rating)” value [1, 5] was “B (≤ 80)” and the “LV activity at 125.1 g/H PUCCRT 1DP (disease control rating)” value [2, 5] was “B (≤ 80)”. The “LV activity at 125.1 g/H PUCCRT 3DC (disease control rating)” value [2, 5] was “D”.
